Three compounds from ChEMBL document CHEMBL1201862, “PubChem BioAssay data set” (2004) can be followed below.

SMILES strings stand for the structures. Active and inactive are the calls of the source.

Common to all, as to format: functional
For assay [1], the target named is BDNF/NT-3 growth factors receptor (Homo sapiens, UniProt Q16620).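 Note: NTRK2 measured as one member of a broad kinome-wide kinase profiling panel.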
Assay [2] deals with Mitogen-activated protein kinase 8 (Homo sapiens, UniProt P45983).
Chain of Mitogen-activated protein kinase 8 (P45983 whole entry): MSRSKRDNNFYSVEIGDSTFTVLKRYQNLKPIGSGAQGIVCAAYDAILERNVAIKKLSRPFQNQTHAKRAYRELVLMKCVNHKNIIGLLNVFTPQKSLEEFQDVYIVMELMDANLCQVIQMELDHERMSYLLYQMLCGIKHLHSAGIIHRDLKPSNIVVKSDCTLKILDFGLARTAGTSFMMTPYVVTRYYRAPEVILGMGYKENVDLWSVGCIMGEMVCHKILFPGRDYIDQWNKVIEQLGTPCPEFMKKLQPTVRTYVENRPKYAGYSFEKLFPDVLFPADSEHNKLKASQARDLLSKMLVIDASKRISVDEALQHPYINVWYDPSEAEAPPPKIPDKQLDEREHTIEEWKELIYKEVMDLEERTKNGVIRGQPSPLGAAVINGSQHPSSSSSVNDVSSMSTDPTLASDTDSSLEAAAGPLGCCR
Assay [3] has as its target Tyrosine-protein kinase Fyn (Homo sapiens, UniProt P06241).
Assay [4] addresses Proto-oncogene tyrosine-protein kinase receptor Ret (Homo sapiens, UniProt P07949).
Assay [5] addresses Dual specificity tyrosine-phosphorylation-regulated kinase 1A (Homo sapiens, UniProt Q13627).
The next assay addresses Aurora kinase B (Homo sapiens, UniProt Q96GD4).
Assay [6] has as its target T1, Serine/threonine-protein kinase TAO1 (Homo sapiens, UniProt Q7L7X3).
T1 sequence (Q7L7X3 whole entry): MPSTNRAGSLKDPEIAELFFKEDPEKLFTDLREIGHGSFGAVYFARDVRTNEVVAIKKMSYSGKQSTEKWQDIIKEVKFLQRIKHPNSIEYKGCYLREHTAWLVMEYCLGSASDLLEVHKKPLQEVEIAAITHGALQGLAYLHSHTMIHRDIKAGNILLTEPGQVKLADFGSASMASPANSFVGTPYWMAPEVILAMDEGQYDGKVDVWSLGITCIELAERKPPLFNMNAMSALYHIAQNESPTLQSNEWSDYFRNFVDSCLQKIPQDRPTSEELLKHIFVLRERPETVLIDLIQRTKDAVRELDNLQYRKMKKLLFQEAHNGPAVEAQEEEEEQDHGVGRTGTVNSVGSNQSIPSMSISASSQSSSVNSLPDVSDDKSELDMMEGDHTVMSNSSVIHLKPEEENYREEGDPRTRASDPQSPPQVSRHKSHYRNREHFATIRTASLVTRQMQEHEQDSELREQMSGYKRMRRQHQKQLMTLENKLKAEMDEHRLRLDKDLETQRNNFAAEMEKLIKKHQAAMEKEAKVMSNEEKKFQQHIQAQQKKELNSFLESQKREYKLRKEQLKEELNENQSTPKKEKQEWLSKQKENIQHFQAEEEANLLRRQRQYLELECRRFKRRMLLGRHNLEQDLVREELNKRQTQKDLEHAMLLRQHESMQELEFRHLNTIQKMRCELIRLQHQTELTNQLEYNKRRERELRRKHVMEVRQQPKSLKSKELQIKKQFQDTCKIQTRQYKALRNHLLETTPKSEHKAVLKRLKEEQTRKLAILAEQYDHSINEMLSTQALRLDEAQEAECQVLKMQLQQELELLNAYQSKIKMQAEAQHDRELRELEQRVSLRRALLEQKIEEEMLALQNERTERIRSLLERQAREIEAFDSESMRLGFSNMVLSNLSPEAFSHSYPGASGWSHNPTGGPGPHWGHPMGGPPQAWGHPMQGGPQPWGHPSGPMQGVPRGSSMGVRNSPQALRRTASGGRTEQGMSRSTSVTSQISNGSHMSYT

In assay [7] the target is Calcium/calmodulin-dependent protein kinase type II subunit alpha (Homo sapiens, UniProt Q9UQM7). In words: Navigating the Kinome. Panel member name: CAMK2A.
Assay [8] concerns the target Serine/threonine-protein kinase pim-1 (Homo sapiens, UniProt P11309).
Assay [9] deals with Leucine-rich repeat serine/threonine-protein kinase 2 (Homo sapiens, UniProt Q5S007).
Chain of Leucine-rich repeat serine/threonine-protein kinase 2 (Q5S007 whole entry): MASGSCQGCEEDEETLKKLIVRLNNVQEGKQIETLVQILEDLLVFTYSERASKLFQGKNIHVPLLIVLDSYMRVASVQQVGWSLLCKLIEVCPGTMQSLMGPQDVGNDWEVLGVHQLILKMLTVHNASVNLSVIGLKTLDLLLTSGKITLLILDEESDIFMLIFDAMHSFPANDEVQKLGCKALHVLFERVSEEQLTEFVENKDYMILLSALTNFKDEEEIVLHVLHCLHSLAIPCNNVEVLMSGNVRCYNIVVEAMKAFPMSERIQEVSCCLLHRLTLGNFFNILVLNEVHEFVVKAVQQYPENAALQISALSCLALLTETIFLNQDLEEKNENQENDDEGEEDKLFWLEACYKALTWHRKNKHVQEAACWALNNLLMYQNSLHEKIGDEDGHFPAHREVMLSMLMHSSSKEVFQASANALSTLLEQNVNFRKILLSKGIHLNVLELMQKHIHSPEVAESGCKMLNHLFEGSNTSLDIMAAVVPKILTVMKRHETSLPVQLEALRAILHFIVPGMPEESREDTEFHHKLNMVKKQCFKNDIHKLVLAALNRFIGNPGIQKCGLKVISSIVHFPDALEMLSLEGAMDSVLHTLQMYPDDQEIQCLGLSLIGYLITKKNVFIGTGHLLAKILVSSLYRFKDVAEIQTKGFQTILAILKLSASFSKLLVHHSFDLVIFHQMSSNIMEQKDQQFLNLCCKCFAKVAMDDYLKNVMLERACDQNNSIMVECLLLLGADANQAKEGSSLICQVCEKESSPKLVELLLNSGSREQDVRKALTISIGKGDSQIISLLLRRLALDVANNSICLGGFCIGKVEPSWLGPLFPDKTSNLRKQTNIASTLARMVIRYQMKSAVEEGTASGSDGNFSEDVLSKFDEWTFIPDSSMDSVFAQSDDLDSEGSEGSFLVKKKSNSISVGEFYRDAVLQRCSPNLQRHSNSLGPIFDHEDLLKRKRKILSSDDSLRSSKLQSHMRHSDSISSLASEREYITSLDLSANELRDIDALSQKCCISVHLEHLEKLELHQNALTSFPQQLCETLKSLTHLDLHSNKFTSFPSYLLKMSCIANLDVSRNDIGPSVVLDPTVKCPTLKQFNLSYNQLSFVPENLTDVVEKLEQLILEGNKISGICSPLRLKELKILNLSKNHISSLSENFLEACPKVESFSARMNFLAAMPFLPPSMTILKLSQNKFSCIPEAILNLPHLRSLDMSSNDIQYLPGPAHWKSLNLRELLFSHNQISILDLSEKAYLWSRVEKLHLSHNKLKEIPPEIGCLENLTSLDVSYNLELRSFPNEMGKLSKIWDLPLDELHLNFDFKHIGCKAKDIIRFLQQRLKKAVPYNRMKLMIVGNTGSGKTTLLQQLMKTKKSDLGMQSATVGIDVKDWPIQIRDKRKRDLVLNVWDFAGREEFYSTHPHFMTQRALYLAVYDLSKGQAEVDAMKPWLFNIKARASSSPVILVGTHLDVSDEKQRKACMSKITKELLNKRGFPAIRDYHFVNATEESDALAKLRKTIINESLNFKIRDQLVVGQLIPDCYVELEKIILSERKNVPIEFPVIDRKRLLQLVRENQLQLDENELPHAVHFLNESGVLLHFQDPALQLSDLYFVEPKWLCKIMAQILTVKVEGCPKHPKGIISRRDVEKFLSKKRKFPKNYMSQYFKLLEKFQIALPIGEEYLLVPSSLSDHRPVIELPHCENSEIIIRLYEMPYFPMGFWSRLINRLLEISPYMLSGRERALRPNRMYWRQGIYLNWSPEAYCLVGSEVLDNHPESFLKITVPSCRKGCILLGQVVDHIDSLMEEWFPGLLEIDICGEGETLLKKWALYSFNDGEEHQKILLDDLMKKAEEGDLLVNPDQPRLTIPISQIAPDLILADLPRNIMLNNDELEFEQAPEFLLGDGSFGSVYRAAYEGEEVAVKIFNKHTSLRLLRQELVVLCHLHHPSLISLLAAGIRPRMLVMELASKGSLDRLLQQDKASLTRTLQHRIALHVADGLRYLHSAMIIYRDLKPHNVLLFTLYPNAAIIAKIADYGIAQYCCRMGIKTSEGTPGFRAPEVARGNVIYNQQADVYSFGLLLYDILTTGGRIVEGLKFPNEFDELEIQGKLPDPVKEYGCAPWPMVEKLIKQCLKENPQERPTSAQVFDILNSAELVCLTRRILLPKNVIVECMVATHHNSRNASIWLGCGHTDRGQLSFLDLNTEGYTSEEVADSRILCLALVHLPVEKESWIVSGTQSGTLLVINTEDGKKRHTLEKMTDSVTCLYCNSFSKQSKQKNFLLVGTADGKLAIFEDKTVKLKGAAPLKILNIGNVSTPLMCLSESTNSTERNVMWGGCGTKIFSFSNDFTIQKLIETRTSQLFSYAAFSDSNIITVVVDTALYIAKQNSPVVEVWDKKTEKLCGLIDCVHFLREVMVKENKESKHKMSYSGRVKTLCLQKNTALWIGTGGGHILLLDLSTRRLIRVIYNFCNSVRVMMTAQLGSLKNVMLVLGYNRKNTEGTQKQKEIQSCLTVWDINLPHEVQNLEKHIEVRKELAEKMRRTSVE
The target in assay [10] is Dual specificity mitogen-activated protein kinase kinase 2 (Homo sapiens, UniProt P36507). In words: Navigating the Kinome. Panel member name: MAP2K2.
Chain of Dual specificity mitogen-activated protein kinase kinase 2 (P36507 whole entry): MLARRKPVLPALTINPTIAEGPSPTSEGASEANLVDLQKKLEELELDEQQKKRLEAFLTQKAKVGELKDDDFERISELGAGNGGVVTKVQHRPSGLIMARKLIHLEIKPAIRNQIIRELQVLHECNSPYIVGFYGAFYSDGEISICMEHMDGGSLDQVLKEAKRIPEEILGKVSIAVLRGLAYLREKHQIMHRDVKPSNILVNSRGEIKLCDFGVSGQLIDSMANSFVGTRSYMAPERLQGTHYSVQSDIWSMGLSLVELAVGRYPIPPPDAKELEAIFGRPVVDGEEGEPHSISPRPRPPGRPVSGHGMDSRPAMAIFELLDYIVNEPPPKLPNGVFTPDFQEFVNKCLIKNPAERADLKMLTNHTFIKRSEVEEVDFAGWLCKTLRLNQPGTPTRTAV
The target in assay [11] is ALK tyrosine kinase receptor (Homo sapiens, UniProt Q9UM73).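 Note: ALK tested as one member of a kinase panel screen.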
Assay [12] addresses Dual specificity tyrosine-phosphorylation-regulated kinase 1B (Homo sapiens, UniProt Q9Y463). In words: Navigating the Kinome. Panel member name: DYRK1B.
Assay [13] concerns the target T2, Tyrosine-protein kinase JAK3 (Homo sapiens, UniProt P52333).
T2 sequence (P52333 whole entry): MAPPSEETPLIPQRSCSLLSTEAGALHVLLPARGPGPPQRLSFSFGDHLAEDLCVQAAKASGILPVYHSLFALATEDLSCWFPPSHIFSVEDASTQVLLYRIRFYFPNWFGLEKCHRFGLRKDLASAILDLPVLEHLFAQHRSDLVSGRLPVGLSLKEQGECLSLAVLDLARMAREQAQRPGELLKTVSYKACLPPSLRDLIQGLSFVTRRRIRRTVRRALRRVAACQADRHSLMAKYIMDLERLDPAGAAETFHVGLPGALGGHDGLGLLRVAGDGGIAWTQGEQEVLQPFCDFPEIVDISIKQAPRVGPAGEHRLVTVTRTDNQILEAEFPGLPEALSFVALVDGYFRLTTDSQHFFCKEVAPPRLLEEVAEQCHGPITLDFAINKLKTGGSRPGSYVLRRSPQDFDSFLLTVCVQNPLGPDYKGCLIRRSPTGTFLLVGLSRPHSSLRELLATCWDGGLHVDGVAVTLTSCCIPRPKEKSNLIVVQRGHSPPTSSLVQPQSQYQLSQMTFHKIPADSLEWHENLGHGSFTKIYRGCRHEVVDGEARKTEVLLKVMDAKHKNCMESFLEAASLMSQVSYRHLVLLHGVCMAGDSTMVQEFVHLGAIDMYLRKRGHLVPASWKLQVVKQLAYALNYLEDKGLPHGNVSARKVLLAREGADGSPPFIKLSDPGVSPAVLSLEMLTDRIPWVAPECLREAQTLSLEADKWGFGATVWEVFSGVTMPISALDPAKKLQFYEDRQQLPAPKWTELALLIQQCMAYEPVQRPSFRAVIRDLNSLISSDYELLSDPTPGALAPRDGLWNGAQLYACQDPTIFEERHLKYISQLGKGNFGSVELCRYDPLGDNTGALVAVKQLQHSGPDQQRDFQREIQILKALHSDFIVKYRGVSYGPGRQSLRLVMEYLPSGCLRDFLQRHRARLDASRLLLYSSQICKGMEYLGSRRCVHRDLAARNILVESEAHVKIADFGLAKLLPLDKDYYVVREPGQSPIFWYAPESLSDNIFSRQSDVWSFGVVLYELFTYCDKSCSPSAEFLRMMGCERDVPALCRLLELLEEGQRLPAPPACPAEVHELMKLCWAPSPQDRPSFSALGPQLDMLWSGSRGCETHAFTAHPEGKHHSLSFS

Assay [14] concerns the target Ribosomal protein S6 kinase alpha-3 (Homo sapiens, UniProt P51812).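 Note: measured within a kinome-wide profiling panel.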
In assay [15] the target is Hepatocyte growth factor receptor (Homo sapiens, UniProt P08581).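 Note: kinase panel profiling across the kinome, with MET as the panel member.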
Assay [16] addresses High affinity nerve growth factor receptor (Homo sapiens, UniProt P04629).

What is called Ki is the equilibrium dissociation constant of an inhibitor or competing ligand from its target. By pKi is commonly meant the negative decadic logarithm of the Ki, by convention in mol/L.

Chain of Dual specificity tyrosine-phosphorylation-regulated kinase 1B (Q9Y463 whole entry): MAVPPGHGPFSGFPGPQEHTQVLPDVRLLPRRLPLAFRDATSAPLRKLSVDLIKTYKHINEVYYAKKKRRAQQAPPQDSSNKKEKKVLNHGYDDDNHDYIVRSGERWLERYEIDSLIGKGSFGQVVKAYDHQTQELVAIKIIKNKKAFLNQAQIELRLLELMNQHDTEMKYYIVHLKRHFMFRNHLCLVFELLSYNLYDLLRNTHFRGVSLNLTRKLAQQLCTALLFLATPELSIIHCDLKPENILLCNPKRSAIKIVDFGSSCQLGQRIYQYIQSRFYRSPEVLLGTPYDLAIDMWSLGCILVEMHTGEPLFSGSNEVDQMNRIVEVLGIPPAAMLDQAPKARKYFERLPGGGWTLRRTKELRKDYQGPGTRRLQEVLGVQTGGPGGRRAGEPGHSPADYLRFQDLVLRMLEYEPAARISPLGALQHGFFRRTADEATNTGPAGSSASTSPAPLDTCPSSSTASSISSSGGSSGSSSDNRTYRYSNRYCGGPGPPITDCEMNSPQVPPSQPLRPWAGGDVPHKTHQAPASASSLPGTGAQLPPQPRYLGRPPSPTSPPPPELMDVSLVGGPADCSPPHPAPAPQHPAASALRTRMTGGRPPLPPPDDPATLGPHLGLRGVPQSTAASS
Chain of Ribosomal protein S6 kinase alpha-3 (P51812 whole entry): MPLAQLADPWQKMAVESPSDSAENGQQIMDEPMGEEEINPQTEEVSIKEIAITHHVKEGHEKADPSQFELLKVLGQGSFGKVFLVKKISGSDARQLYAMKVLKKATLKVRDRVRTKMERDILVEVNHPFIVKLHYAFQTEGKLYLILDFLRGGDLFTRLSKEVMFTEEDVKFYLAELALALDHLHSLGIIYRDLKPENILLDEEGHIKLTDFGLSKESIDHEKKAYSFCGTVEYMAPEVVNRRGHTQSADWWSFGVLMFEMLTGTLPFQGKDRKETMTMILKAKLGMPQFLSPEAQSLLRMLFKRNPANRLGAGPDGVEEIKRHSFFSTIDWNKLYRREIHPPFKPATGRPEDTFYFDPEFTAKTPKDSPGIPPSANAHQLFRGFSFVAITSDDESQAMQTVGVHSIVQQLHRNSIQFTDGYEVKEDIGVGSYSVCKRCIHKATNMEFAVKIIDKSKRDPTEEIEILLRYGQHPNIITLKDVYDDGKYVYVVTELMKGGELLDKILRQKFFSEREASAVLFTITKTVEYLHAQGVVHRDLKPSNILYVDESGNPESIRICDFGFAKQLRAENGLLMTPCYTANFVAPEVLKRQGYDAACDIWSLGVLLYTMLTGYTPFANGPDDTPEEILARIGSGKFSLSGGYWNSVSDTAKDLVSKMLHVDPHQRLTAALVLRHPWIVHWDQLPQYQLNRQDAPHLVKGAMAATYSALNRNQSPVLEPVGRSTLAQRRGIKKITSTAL
Chain of Aurora kinase B (Q96GD4 whole entry): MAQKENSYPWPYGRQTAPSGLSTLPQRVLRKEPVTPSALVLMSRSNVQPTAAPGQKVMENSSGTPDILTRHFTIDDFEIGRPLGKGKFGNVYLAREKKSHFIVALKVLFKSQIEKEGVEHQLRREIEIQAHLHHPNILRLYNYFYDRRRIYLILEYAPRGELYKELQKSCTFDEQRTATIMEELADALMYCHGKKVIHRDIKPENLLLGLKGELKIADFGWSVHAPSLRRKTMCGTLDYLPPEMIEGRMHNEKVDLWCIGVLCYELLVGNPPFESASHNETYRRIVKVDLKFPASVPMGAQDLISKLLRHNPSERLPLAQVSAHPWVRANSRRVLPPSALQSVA

Regarding `Cc1ccc(C)c(NC(=O)c2cc(-c3ccco3)nc3ccccc23)c1`, the Ki in assay [1] was > 3.98 µM (inactive); in [2], > 5.01 µM (inactive); in assay [3] it was > 6.31 µM (inactive); in assay [4], 3.16 µM (active); in assay [5], 0.631 µM (active); on Aurora kinase B, 3.16 µM (active). The Ki in assay [6] is 3.98 µM (active); in assay [7] it was 3.16 µM (active); in assay [8], 1.26 µM (active); in assay [9], 1.58 µM (active); in assay [10], 3.16 µM (active); in assay [11] it was > 6.31 µM (inactive). In addition, the Ki was 1 µM (active) in assay [12]; > 5.01 µM (inactive) in assay [13]; 3.16 µM (active) in assay [14]; 0.631 µM (active) in assay [15]; 1 µM (active) in assay [16].

On to `COc1ccc(C2=NNc3cccc4c(OC)ccc2c34)cc1OC`, for which the Ki in [1] is > 3.98 µM (inactive); in [2], > 5.01 µM (inactive); in assay [3] it was > 6.31 µM (inactive); in [4], 0.501 µM (active); in assay [5] it was 0.0794 µM (active); on Aurora kinase B, > 3.98 µM (inactive). The Ki is 1 µM (active) in assay [6]; > 3.98 µM (inactive) in [7]; > 6.31 µM (inactive) in [8]; 0.251 µM (active) in assay [9]; > 3.98 µM (inactive) in assay [10]; 1.58 µM (active) in assay [11]. Besides, the Ki in assay [12] is 0.316 µM (active); in [13], 0.251 µM (active); in [14], 1.58 µM (active); in assay [15] it was 0.316 µM (active); in assay [16] it was > 3.16 µM (inactive).

Turning to `CN1CCC(c2c(O)cc(O)c3c(=O)cc(-c4ccccc4Cl)oc23)C(O)C1` (configuration not stated), the Ki was > 3.98 µM (inactive) in [1]; > 3.98 µM (inactive) in assay [2]; > 3.16 µM (inactive) in [3]; > 2 µM (inactive) in [4]; 0.794 µM (active) in assay [5]; > 5.01 µM (inactive) at Aurora kinase B. The inhibition constant Ki in assay [6] was 0.794 µM (active); in [7], > 3.98 µM (inactive); in [8] it was 0.794 µM (active); in [9] it was 1 µM (active); in assay [10], > 3.98 µM (inactive); in assay [11] it was 0.631 µM (active). For the same compound, the Ki in assay [12] was 0.126 µM (active); in [13], > 3.98 µM (inactive); in assay [14], 1.26 µM (active); in [15], > 2.51 µM (inactive); in assay [16], > 2.51 µM (inactive). This compound also came in with a pKi in assay [11] of 6.2.
